Results as given in patent US20140234868A1, “USE FOR GLYCOLIPOPROTEIN GINTONIN, ISOLATED AND IDENTIFIED FROM GINSENG, AS A NATURAL MEDICAL-PLANT DERIVED LIGAND” (KONKUK UNIVERSITY INDUSTRIAL COOPERATION CORP., priority 2011, published 2014).

How the values were obtained:
LPA receptor = assay: Gintonin-induced intracellular Ca2+ increase in LPA receptor-expressing B103 cells (subtype not named); format: cell-based, human; conditions: pretreated
Excerpt: Optionally, the method may further comprise (8) pre-treating the suspended B103 cells with LPA receptor antagonists and LPA receptor-mediated signaling-relevant drugs (e.g., pertussis toxin, PLC inhibitors, IP3 receptor antagonists) to examine whether the cells decrease or increase in intracellular free Ca^2+, prior to treatment with gintonin; (9) performing site-directed mutagenesis to identify an amino acid of LPA receptors with which gintonin interact to activate the LPA; and (10) examining whether gintonin activates orphan GPCRs including GPR35 and GPR87, and free fatty acid GPCRs including GPR40, GPR41, GPR43 and GPR120, all known for activation by LPA.
In this Example, gintonin, or ginsenoside Rb1 or Rg1 was examined for its ability to induce a transient increase of [Ca^2+]i in Fura-2AM-loaded B103 cells which were transfected with LPA receptors and in Fura-2AM-loaded B103 cells which were not transfected with LPA receptors. […]
(§1) Briefly, Fura 2-AM loaded cells were diluted with an experimental medium to a final density of 2˜4×10^6 cells/mL, and transferred to polystyrene cuvettes (Elkay Ultra-VU). […] Emission was detected at 510 nm Excitation and emission slit widths were 5 nm Background calibration was performed as described by Jørgensen et al.

[1] = tested on: NMDA receptors (NR1 and NR2); assay: NMDA receptor activity in Xenopus oocytes, two-electrode voltage clamp; format: cell-based; conditions: Kil6425 10 μM, 2-APB 100 μM, BAPTA 100 μM 3 h
Experimental: cDNAs of NMDA receptor subunits (NR1 and NR2) were employed (Zheng et al., J Neurosci. 17, 8676-8686, 1997). cDNAs (100 ng/40 nl) corresponding to respective NMDA receptor subunits (NR1 and NR2) were injected into animal or vegetal poles of oocytes by use of a […] (VWR Scientific, USA) and incubated for 4-5 days after injection (Zheng et al., J Neurosci. 17, 8676-8686, 1997).
(§2) Xenopus laevis frogs were obtained from Xenopus I (Ann Arbor, Mich.). Their care and handling were in accordance with the highest standards of institutional guidelines. To isolate oocytes, the frogs were operated on under anesthesia with an aerated solution of 3-aminobenzoic acid ethyl ester. Oocytes were separated by treatment with collagenase and agitation for two hours in a Ca^2+-free medium containing 82.5 mM NaCl, 2 mM KCl, 1 mM MgCl2, 5 mM HEPES, 2.5 mM sodium pyruvate, 100 units/ml penicillin and 100 μg/ml streptomycin.
(§3) Stage V-VI oocytes were collected and stored in ND96 (96 mM NaCl, 2 mM KCl, 1 mM MgCl2, 1.8 mM CaCl2, and 5 mM HEPES, pH 7.4) supplemented with 50 μg/ml gentamicin. This oocyte containing solution was maintained at 18° C. with continuous gentle shaking while the ND96 medium was changed to a fresh one every day.
Two-electrode voltage-clamp recordings were obtained from individual oocytes placed in a small Plexiglas net chamber (5 ml). Electrophysiological experiments were performed using microelectrodes filled with 3 M KCl (resistance of 0.2-0.7 MΩ) and an Oocyte Clamp amplifier (OC-725C; Warner Instrument, Hamden, Conn.). For physiological recordings of NMDA receptor activity, oocytes were first perfused with Mg^2+-free ND96 (mM: 96 NaOH, 2 KOH, 0.3 CaCl2, 5 HEPES pH 7.6 with methanesulfonic acid). Then, the oocytes were clamped at −60 mV holding potential, followed by recoding NMDA currents (induced by administering […]) (Zheng et al., J Neurosci. 17, 8676-8686, 1997; Chang and Kuo, J Neurosci. 28, 1546-1556, 2008).

endogenous CaCC = assay: Endogenous Ca2+-activated channel (CaCC) activation in Xenopus oocytes; format: cell-based, Xenopus laevis; conditions: Kil6425 10 μM; U73122 1 μM; 2-APB 100 μM; BAPTA 100 μM 3 h
BKCaK+ channels = assay: BKCa K+ channel activity in Xenopus oocytes, two-electrode voltage clamp; format: cell-based; conditions: 2-APB 100 μM, BAPTA-AM, PMA 1 μM; for effect on gintonin-induced BKCaK+ channel activation: Kil6425 10 μM, U73122, U73343 1 μM; for effect on ginsenoside Rg3-induced BKCaK+ channel activity: U73122 1 μM
Experimental: as §2
as §3, with “changed with” for “changed to”
Two-electrode voltage-clamp recordings were obtained from individual oocytes placed in a small Plexiglas net chamber (5 ml). Electrophysiological experiments were performed using microelectrodes filled with 3 M KCl (resistance of 0.2-0.7 MΩ) and an Oocyte Clamp amplifier (OC-725C; Warner Instrument, CT, USA) to record BKc K^+ channel activity at room temperature (Choi et al., Mol Cells 31, 133-140, 2011). For physiological recordings of BKCaK^+ channel activity, oocytes were first perfused with a Cl^−- and Ca^2+-free solution (mM: 96 NaOH, 2 KOH, 8 Mg-gluconate, 5 HEPES, 5 EGTA, pH 7.4 with methanesulfonic acid) supplemented with 500 μM anthracene-9-carboxylic acid, a Cl^− channel blocker, to block endogenous Cl-channels (Lu et al., J. Biol. Chem. 265, 16190-16194.1990). Then, the oocytes were clamped at −80 mV holding potential, followed by step depolarization from the holding potential to +40 mV at regular intervals of […] for 400 ms to record outward currents.

[2] = tested on: LPA receptor-null B103 cells (empty vector); assay: Intracellular free Ca2+ (Fura-2AM) in B103 cells transfected with empty vector; format: cell-based, rat; conditions: B103 cells not expressing LPA3 receptor
Excerpt: LPA family receptors are endogenous to cells of most organs. B103 rat neuroblastoma cells, known as LPA receptor-null cells (Valentine et al., Biochim Biophys Acta 1780. 597-605) were transiently transfected with a plasmid (vector) carrying one of genes coding for LPA1(edg-2), LPA2(edg-4), LPA3(edg-7), LPA4, LPA5 and LPA6 receptors or a plasmid carrying none of them (empty vector). Two or three days after transfection, the cells are suspended, and made permeable. Then, the permeable cells are treated with Fura-2AM, a fluorescent dye binding to calcium, and then with gintonin, followed by spectrofluorephotometry to examine whether gintonin induces an increase in intracellular free Ca^2+ level. […]
as §1, with “al. […]” for “al.”

LPA3 receptor = target: T1, LPA3 receptor (Homo sapiens, UniProt Q9UBY5); assay: Intracellular free Ca2+ (Fura-2AM) in LPA3-expressing B103 cells; format: cell-based; conditions: LPA3 receptor-expressing B103 cells; read-out: EC50, intracellular calcium increase
T1 construct: host or cells: B103 rat neuroblastoma cells
T1 sequence (Q9UBY5 1-353): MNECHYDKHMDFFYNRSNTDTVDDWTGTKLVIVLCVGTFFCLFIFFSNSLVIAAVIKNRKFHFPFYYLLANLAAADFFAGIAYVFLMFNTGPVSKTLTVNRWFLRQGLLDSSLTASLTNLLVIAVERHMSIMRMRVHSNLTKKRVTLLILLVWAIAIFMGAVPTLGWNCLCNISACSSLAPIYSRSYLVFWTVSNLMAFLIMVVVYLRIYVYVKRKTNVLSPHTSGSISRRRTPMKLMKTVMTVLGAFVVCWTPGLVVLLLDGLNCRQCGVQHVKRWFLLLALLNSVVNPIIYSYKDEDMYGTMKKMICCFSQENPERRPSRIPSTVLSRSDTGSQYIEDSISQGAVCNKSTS
Excerpt: LPA family receptors are endogenous to cells of most organs. B103 rat neuroblastoma cells, known as LPA receptor-null cells (Valentine et al., Biochim Biophys Acta 1780. 597-605) were transiently transfected with a plasmid (vector) carrying one of genes coding for LPA1(edg-2), LPA2(edg-4), LPA3(edg-7), LPA4, LPA5 and LPA6 receptors or a plasmid carrying none of them (empty vector). Two or three days after transfection, the cells are suspended, and made permeable. Then, the permeable cells are treated with Fura-2AM, a fluorescent dye binding to calcium, and then with gintonin, followed by spectrofluorephotometry to examine whether gintonin induces an increase in intracellular free Ca^2+ level.
(1) preparing large quantities of plasmids carrying respective LPA family receptor genes and an empty plasmid carrying none of them through amplification and purification (maxi-preparation); (2) verifying the expression of LPA receptors wherein B103 cells are transfected with haematoglutin (HA)-tagged LPA receptors, and then subjected to Western blotting analysis using an anti-HA primary antibody and a horseradish peroxidase (HRP)-conjugated secondary antibody to develop a color; (3) verifying the expression of LPA receptors wherein B1-3 cells are transfected with haematoglutin (HA)-tagged LPA receptors, and then subjected to confocal laser microscopy using an anti-HA antibody and a fluorescence dye Cy3-conjugated secondary antibody; (4) transfecting the empty plasmid and each of the plasmids carrying LPA family receptor genes into B103 cells; (5) treating the transfected B103 cells with trypsin (0.05% trypsin with EDTA, w/v) 2-3 days post-transfection, to give a cell suspension; (6) culturing the suspended B103 cells with Fura-2AM (2.5 μM); and (7) treating the suspended B103 cells with gintonin and quantifying a change in intracellular free Ca^2+ level in a cuvette by spectrofluorephotometry using Fura-2AM.
Human LPA (lysophosphatidic acid) receptor subtypes, orphan GPCRs (G protein coupled receptors) and plasmids carrying GPCRs were purchased from Missouri S&T resource Center (www.cDNA.org).
The transient transfection of LPA receptor subtypes was carried out with the aid of Lipofectamine 2000 of Invitrogen. A plasmid (10.8 μg) carrying each LPA receptor (LPA1, LPA2, LPA3, LPA4, LPA5, and LPA6) was transfected into B103 cells grown in 10-cm dishes, and incubated for 2 days prior for use in experiments.
In this Example, gintonin, or ginsenoside Rb1 or Rg1 was examined for its ability to induce a transient increase of [Ca^2+]i in Fura-2AM-loaded B103 cells which were transfected with LPA receptors and in Fura-2AM-loaded B103 cells which were not transfected with LPA receptors. To this end, B103 cells (2˜4×10^6/ml) pre-treated with Fura-2AM were suspended in a 1.5 mM Ca^2+-containing buffer or Ca^2+-free buffer, and incubated 37° C. for 30 min, followed by analyzing intracellular calcium levels in the B103 cells in the presence of gintonin or ginsenosides.
Briefly, B103 cells (1˜2×10^6/ml) were mixed with 2.5 μM Fura 2-AM in a Ca^2+ buffer (pH 7.4) containing NaCl 120 mM, KCl 5 mM, MgCl2 1 mM, CaCl2 1.5 mM, glucose 10 mM, and HEPES 25 mM, and a Ca^2+ free buffer (pH 7.4) containing NaCl 120 mM, KCl 5 mM, MgCl2 1 mM, EGTA 0.2 mM, glucose 10 mM, and HEPES 25 mM at 37° C. for 30 min in water bath with shaking according to the Jørgensen method, and washed three times with Ca^2+ buffer or Ca^2+ free buffer to remove excess Fura-2AM.
[Ca^2+]i was estimated in Fura 2AM-loaded cells in suspension using an RF-5300PC intracellular ion measurement system (Shimadzu Corporation, Japan).
Briefly, Fura 2-AM loaded cells were diluted with an experimental medium to a final density of 2˜4×10^6 cells/mL, and transferred to polystyrene cuvettes (Elkay Ultra-VU). The cells were stirred using Teflon-coated magnets, and the cuvette housing was thermostatically controlled at 37° C. The excitation wavelengths were alternated between 340 and 380 nm under computer control. […]

| Molecule | effect of pretreatment on gintonin-induced intracellular calcium increase (LPA receptor) | effect on NMDA-induced inward current ([1]; U73122 1 μM) | effect on gintonin-induced NMDA receptor activation ([1]; gintonin 1 μg/ml, U73122, U73343 1 μM, genistein 10 μM, PP2, PP3 30 μM) | effect on gintonin-induced CaCC activation (endogenous CaCC) | effect on gintonin-induced BKCaK+ channel activation (BKCaK+ channels) | effect on ginsenoside Rg3-induced BKCaK+ channel activity (BKCaK+ channels) | increase of intracellular calcium level [2] | EC50 (LPA3 receptor) [nM] |
| --- | --- | --- | --- | --- | --- | --- | --- | --- |
| O=C(O)CN(CC(=O)O)c1ccccc1OCCOc1ccccc1N(CC(=O)O)CC(=O)O [BAPTA] | became invalid | normal NMDA-induced inward currents | reduction | a reduction in gintonin-induced CaCC activation | a reduction in BKCaK^+ channel activation | not blocked | – | – |
| CCCCCCCCCCCCCC(=O)O[C@@H]1[C@@H](C)[C@@]2(O)[C@@H](C=C(CO)C[C@]3(O)C(=O)C(C)=C[C@@H]23)[C@@H]2C(C)(C)[C@]12OC(C)=O [PMA] | blocked | – | – | – | caused the gintonin-induced activation of BKCaK^+ channels to disappear | had no influences on the activity of ginsenoside Rg3 | – | – |
| lysophosphatidic acid [LPA, reference compound] | – | – | – | – | – | – | did not induce the increase of intracellular calcium level | 58.9 ± 5.54 |
